Here are results for two compounds from paper PMC8388879 (Antioxidants, 2021).

As usually defined, the IC50 is the concentration that inhibits the measured activity by half. The low end stands for greater potency, the high end for weaker potency. By inhibition is commonly meant how much of the control response was suppressed. The low end stands for a weak effect, the high end for a strong effect.

In assay [1] the target is mushroom TYR (tyrosinase). In words: dopachrome formation from L-DOPA (A475), commercial mushroom TYR; IC50 […] at […] L-DOPA, […] at […]; also traps dopaquinone. Type of assay: biochemical.
Assay [2] concerns the target T1, human TYR (tyrosinase) (Homo sapiens, UniProt P14679).
T1 sequence (P14679 19-529): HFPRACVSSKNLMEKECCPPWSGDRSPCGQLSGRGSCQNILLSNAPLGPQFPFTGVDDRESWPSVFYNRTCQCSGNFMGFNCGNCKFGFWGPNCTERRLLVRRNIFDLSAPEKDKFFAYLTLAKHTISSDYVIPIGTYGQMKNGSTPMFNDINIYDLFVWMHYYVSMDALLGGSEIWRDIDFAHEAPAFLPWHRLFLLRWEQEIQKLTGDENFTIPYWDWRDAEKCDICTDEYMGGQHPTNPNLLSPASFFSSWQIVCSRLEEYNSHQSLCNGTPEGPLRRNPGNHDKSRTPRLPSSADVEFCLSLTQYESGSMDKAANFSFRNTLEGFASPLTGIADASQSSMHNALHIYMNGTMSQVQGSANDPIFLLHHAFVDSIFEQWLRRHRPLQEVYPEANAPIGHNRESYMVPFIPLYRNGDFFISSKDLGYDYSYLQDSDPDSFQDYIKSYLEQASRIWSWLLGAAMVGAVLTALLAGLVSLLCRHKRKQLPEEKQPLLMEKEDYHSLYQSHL
In words: dopachrome formation (A475) in lysate of HEK293 cells expressing human TYR; […] inhibition at […] (dopaquinone trapping may contribute). It counts as cell-based.

`NC(=O)[C@@H](N)CS` [C-NH2, L-Cysteinamide] returned an IC50 in assay [1] of 115 µM.

`N[C@@H](CS)C(=O)O` [L-cysteine] registered an inhibition at 200 µM in assay [2] of 70%.
